Source: ChEMBL document CHEMBL1201862, “PubChem BioAssay data set” (2004)
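Interpolation was linear, between the two tested concentrations surrounding the appropriate level; five concentrations were tested over 48 hours in 96-well plates. GI50: concentration for 50% inhibition of growth.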 Active and inactive are the calls of the source. Cut-off read from the data, not from the text of the source: active = GI50 up to about 1.1 µM and inactive = higher.

What was measured:
Experiment in all cases: NCI tumour cell line growth inhibition, 48 h
[1] = tested on: COLO 205
[2] = tested on: SN12C
[3] = tested on: HL-60
[4] = tested on: HT-29
[5] = tested on: SF-295
[6] = tested on: MDA-MB-435
[7] = tested on: SF-539
[8] = tested on: OVCAR-5
[9] = tested on: EKVX
[10] = tested on: SNB-19
[11] = tested on: OVCAR-8
[12] = tested on: NCI/ADR-RES
[13] = tested on: ACHN
[14] = tested on: 786-0
[15] = tested on: HOP-62
[16] = tested on: SR
[17] = tested on: SK-MEL-2
[18] = tested on: CCRF-CEM
[19] = tested on: HCC 2998

Cc1ccc(S(=O)(=O)Nc2ccccc2C=O)cc1
GI50 [1]: 16.9 µM (inactive) | GI50 [2]: 16.1 µM (inactive) | GI50 [3]: 11 µM (inactive) | GI50 [4]: 22.8 µM (inactive) | GI50 [5]: 18.9 µM (inactive) | GI50 [6]: 10.5 µM (inactive) | GI50 [7]: 0.569 µM (active) | GI50 [8]: 25.1 µM (inactive) | GI50 [9]: 25 µM (inactive) | GI50 [10]: 21.5 µM (inactive) | GI50 [11]: 14.7 µM (inactive) | GI50 [12]: 14.6 µM (inactive) | GI50 [13]: 17.7 µM (inactive) | GI50 [14]: 16.3 µM (inactive) | GI50 [15]: 21.5 µM (inactive) | GI50 [16]: 18.2 µM (inactive) | GI50 [17]: 11.9 µM (inactive)

CC1C(c2ccc3c(c2)OCO3)c2cc3c(cc2OC1N1CCCCC1)OCO3 (stereo unspecified)
GI50 [1]: 36.5 µM (inactive) | GI50 [2]: > 100 µM (inactive) | GI50 [4]: 57.5 µM (inactive) | GI50 [5]: 30.6 µM (inactive) | GI50 [6]: 25.2 µM (inactive) | GI50 [18]: 35.2 µM (inactive) | GI50 [7]: 50.8 µM (inactive) | GI50 [8]: > 100 µM (inactive) | GI50 [9]: 66.2 µM (inactive) | GI50 [10]: 48.9 µM (inactive) | GI50 [11]: > 100 µM (inactive) | GI50 [12]: 42 µM (inactive) | GI50 [13]: 59.6 µM (inactive) | GI50 [14]: 61.5 µM (inactive) | GI50 [15]: > 100 µM (inactive) | GI50 [16]: 37.8 µM (inactive) | GI50 [19]: 20 µM (inactive) | GI50 [17]: 33.6 µM (inactive)

COc1ccc(N(CN2C(=O)CCC2OC)C(C)=O)cc1 (stereo unspecified)
GI50 [1]: > 100 µM (inactive) | GI50 [2]: > 100 µM (inactive) | GI50 [4]: > 100 µM (inactive) | GI50 [5]: > 100 µM (inactive) | GI50 [6]: > 100 µM (inactive) | GI50 [18]: > 100 µM (inactive) | GI50 [7]: > 100 µM (inactive) | GI50 [8]: > 100 µM (inactive) | GI50 [9]: > 100 µM (inactive) | GI50 [10]: > 100 µM (inactive) | GI50 [11]: > 100 µM (inactive) | GI50 [12]: > 100 µM (inactive) | GI50 [13]: > 100 µM (inactive) | GI50 [14]: > 100 µM (inactive) | GI50 [15]: > 100 µM (inactive) | GI50 [16]: > 100 µM (inactive) | GI50 [17]: > 100 µM (inactive)

Cc1nn(-c2ccccc2)c2c1C(c1cc3ccccc3nc1Cl)NC(=S)N2 (stereo unspecified)
GI50 [1]: > 100 µM (inactive) | GI50 [2]: 78.3 µM (inactive) | GI50 [3]: 35.5 µM (inactive) | GI50 [4]: 44.9 µM (inactive) | GI50 [5]: 43.4 µM (inactive) | GI50 [6]: 29 µM (inactive) | GI50 [18]: 31.9 µM (inactive) | GI50 [7]: 24.8 µM (inactive) | GI50 [8]: > 100 µM (inactive) | GI50 [9]: 92.7 µM (inactive) | GI50 [10]: 57.3 µM (inactive) | GI50 [11]: 27.9 µM (inactive) | GI50 [12]: 46.3 µM (inactive) | GI50 [13]: 54.2 µM (inactive) | GI50 [14]: 33 µM (inactive) | GI50 [15]: > 100 µM (inactive) | GI50 [16]: 44.6 µM (inactive) | GI50 [17]: 14.5 µM (inactive)

O=C1Nc2ccccc2S/C1=C\c1ccccc1C(F)(F)F
GI50 [1]: > 100 µM (inactive) | GI50 [2]: > 100 µM (inactive) | GI50 [3]: 4.2 µM (inactive) | GI50 [4]: > 100 µM (inactive) | GI50 [5]: > 100 µM (inactive) | GI50 [6]: > 100 µM (inactive) | GI50 [18]: 2.24 µM (inactive) | GI50 [7]: 72.8 µM (inactive) | GI50 [8]: > 100 µM (inactive) | GI50 [9]: > 100 µM (inactive) | GI50 [10]: > 100 µM (inactive) | GI50 [11]: 72.6 µM (inactive) | GI50 [12]: > 100 µM (inactive) | GI50 [13]: 15.1 µM (inactive) | GI50 [14]: 44.1 µM (inactive) | GI50 [15]: > 100 µM (inactive) | GI50 [16]: > 100 µM (inactive) | GI50 [17]: > 100 µM (inactive)

O=C1NCC(NC(=O)C(F)(F)F)c2c(Br)sc(Br)c21 (stereo unspecified)
GI50 [1]: > 100 µM (inactive) | GI50 [2]: > 100 µM (inactive) | GI50 [4]: > 100 µM (inactive) | GI50 [5]: > 100 µM (inactive) | GI50 [6]: > 100 µM (inactive) | GI50 [18]: > 100 µM (inactive) | GI50 [7]: > 100 µM (inactive) | GI50 [8]: > 100 µM (inactive) | GI50 [9]: > 100 µM (inactive) | GI50 [10]: > 100 µM (inactive) | GI50 [11]: > 100 µM (inactive) | GI50 [12]: > 100 µM (inactive) | GI50 [13]: > 100 µM (inactive) | GI50 [14]: > 100 µM (inactive) | GI50 [15]: > 100 µM (inactive) | GI50 [16]: > 100 µM (inactive) | GI50 [19]: > 100 µM (inactive) | GI50 [17]: > 100 µM (inactive)

CC[C@H](NC1=C(Cl)C(=O)c2c(O)ccc(O)c2C1=O)C(=O)OC
GI50 [1]: 3.58 µM (inactive) | GI50 [2]: 3.05 µM (inactive) | GI50 [3]: 3.79 µM (inactive) | GI50 [4]: 2.78 µM (inactive) | GI50 [5]: > 10 µM (inactive) | GI50 [6]: 3.26 µM (inactive) | GI50 [18]: 3.5 µM (inactive) | GI50 [7]: 3.44 µM (inactive) | GI50 [8]: > 10 µM (inactive) | GI50 [9]: > 10 µM (inactive) | GI50 [10]: > 10 µM (inactive) | GI50 [11]: 4.63 µM (inactive) | GI50 [12]: 7.28 µM (inactive) | GI50 [13]: > 10 µM (inactive) | GI50 [14]: 4.69 µM (inactive) | GI50 [15]: > 10 µM (inactive) | GI50 [16]: 1.64 µM (inactive) | GI50 [17]: > 10 µM (inactive)

O=c1c(-c2ccccc2)c(SCCO)n(-c2ccccc2)c(=S)n1-c1ccccc1
GI50 [1]: > 100 µM (inactive) | GI50 [2]: > 100 µM (inactive) | GI50 [3]: > 100 µM (inactive) | GI50 [4]: > 100 µM (inactive) | GI50 [5]: > 100 µM (inactive) | GI50 [6]: > 100 µM (inactive) | GI50 [18]: > 100 µM (inactive) | GI50 [8]: > 100 µM (inactive) | GI50 [9]: > 100 µM (inactive) | GI50 [10]: > 100 µM (inactive) | GI50 [11]: > 100 µM (inactive) | GI50 [12]: > 100 µM (inactive) | GI50 [13]: > 100 µM (inactive) | GI50 [14]: > 100 µM (inactive) | GI50 [15]: > 100 µM (inactive) | GI50 [16]: > 100 µM (inactive) | GI50 [17]: > 100 µM (inactive)
